The supplement of paper PMC11208160

Assay: recombinant UMI read abundance after kanamycin selection (control-corrected) (log10(CPM+1)); higher = more efficient recombination; extreme values may be limits of the assay; sequences stand for … in AGTGCAGAGAAAATCGGCCAGTTTTCTCTGCCTGCAGTCCGCATGCCGTGGGACCCCTTGGGTTCTAACCTGTTGCCTAGATTTATGCAGCGGACTGCCTTTCTCCCAAAGTGATAAACCGG…AGGTTGGTTTCACT; site = the 11-nt donor
In short: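 Values, expressed as log10(CPM+1), derive from recombinant UMI counts converted to CPM, averaged across replicates and scaled by control-derived factors. Plating was with IPTG (0.07 mM) plus kanamycin or unselected, two replicates each. The screen pooled donor and donor-binding-loop pairs for the IS621 bridge recombinase in Escherichia coli.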
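Note: IS621 bridge recombinase in Escherichia coli cells against a fixed T5 target plasmid.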

Sequence | recombinant UMI read abundance (log10)
TCCCTTGCATGGACCGGTTTTCCCGGTAATCCGTATTTGGT (site TCCCTTGCTAC) | 0
TCCGACGCATGGACCGGTTTTCCCGGTAATCCGTATTTGCT (site TCCGACGCTAG) | 0.968
TCCGGAACATGGACCGGTTTTCCCGGTAATCCGTATTTGCT (site TCCGGAACTAG) | 0
TCCGGGTCATGGACCGGTTTTCCCGGTAATCCGTATTTGAC (site GGAATCGCTAG) | 0
TCCGGTCCATGGACCGGTTTTCCCGGTAATCCGTATTTGCA (site ACCGGTCCTTG) | 0
TCCGGTCCATGGACCGGTTTTCCCGGTAATCCGTATTTGCA (site CCCGGTCCTTG) | 0
TCCGGTCCATGGACCGGTTTTCCCGGTAATCCGTATTTGCA (site GCCGGTCCTTG) | 0
TCCGGTCCATGGACCGGTTTTCCCGGTAATCCGTATTTGCA (site TCCGGTCCTTG) | 0
TCCTACGCATGGACCGGTTTTCCCGGTAATCCGTATTTGCC (site TCCTACGCTGG) | 0
TCCTCCACATGGACCGGTTTTCCCGGTAATCCGTATTTGGT (site TCCTCCACTAC) | 0.0263
TCCTCGCCATGGACCGGTTTTCCCGGTAATCCGTATTTGTT (site TCCTCGCCTAA) | 0.0142
TCCTGAACATGGACCGGTTTTCCCGGTAATCCGTATTTGCT (site TCCTGAACTAG) | 0
TCCTGGCCATGGACCGGTTTTCCCGGTAATCCGTATTTGTA (site TCCTGGCCTTA) | 0.0229
TCCTTACCATGGACCGGTTTTCCCGGTAATCCGTATTTGGA (site TCCTTACCTTC) | 0.00485
TCCTTCGCATGGACCGGTTTTCCCGGTAATCCGTATTTGCT (site GATCCACCTTC) | 0.0105
TCGAAAACATGGACCGGTTTTCCCGGTAATCCGTATTTGCT (site ACGAAAACTAG) | 0
TCGAAAACATGGACCGGTTTTCCCGGTAATCCGTATTTGCT (site CCGAAAACTAG) | 0.679
TCGAAAACATGGACCGGTTTTCCCGGTAATCCGTATTTGCT (site GCGAAAACTAG) | 0
TCGAAAACATGGACCGGTTTTCCCGGTAATCCGTATTTGCT (site TCGAAAACTAG) | 0
TCGAAGTCATGGACCGGTTTTCCCGGTAATCCGTATTTGCG (site TCGAAGTCTCG) | 1.9
TCGACGGCATGGACCGGTTTTCCCGGTAATCCGTATTTGAC (site TCGACGGCTGT) | 0.0562
TCGACGGCATGGACCGGTTTTCCCGGTAATCCGTATTTGTG (site TCGACGGCTCA) | 0.539
TCGATAGCATGGACCGGTTTTCCCGGTAATCCGTATTTGGG (site TCGATAGCTCC) | 0.00329
TCGATGGCATGGACCGGTTTTCCCGGTAATCCGTATTTGCC (site TCGATGGCTGG) | 0
TCGATGTCATGGACCGGTTTTCCCGGTAATCCGTATTTGTA (site TCGATGTCTTA) | 1.41

Sequence | recombinant UMI read abundance (log10)
TCGATGTCATGGACCGGTTTTCCCGGTAATCCGTATTTGTG (site TCGATGTCTCA) | 0.868
TCGCAAACATGGACCGGTTTTCCCGGTAATCCGTATTTGCC (site TCGCAAACTGG) | 0
TCGCAACCATGGACCGGTTTTCCCGGTAATCCGTATTTGTT (site TCGCAACCTAA) | 0
TCGCATGCATGGACCGGTTTTCCCGGTAATCCGTATTTGGT (site TCGCATGCTAC) | 0.656
TCGCCAGCATGGACCGGTTTTCCCGGTAATCCGTATTTGTG (site TCGCCAGCTCA) | 0.0192
TCGCCATCATGGACCGGTTTTCCCGGTAATCCGTATTTGTT (site TCGCCATCTAA) | 0.0036
TCGCCTTCATGGACCGGTTTTCCCGGTAATCCGTATTTGGT (site TAGCCTTCTAC) | 0.0118
TCGCCTTCATGGACCGGTTTTCCCGGTAATCCGTATTTGGT (site TCGCCTTCTAC) | 0.00817
TCGCCTTCATGGACCGGTTTTCCCGGTAATCCGTATTTGGT (site TGGCCTTCTAC) | 0.00543
TCGCCTTCATGGACCGGTTTTCCCGGTAATCCGTATTTGGT (site TTGCCTTCTAC) | 0.00786
TCGCGAACATGGACCGGTTTTCCCGGTAATCCGTATTTGTA (site TCGCGAACTTA) | 1.18
TCGCTAGCATGGACCGGTTTTCCCGGTAATCCGTATTTGAA (site TAGCTAGCTTT) | 0.00313
TCGCTAGCATGGACCGGTTTTCCCGGTAATCCGTATTTGAA (site TCGCTAGCTTT) | 0.00622
TCGCTAGCATGGACCGGTTTTCCCGGTAATCCGTATTTGAA (site TGGCTAGCTTT) | 0
TCGCTAGCATGGACCGGTTTTCCCGGTAATCCGTATTTGAA (site TTGCTAGCTTT) | 0.0117
TCGCTAGCATGGACCGGTTTTCCCGGTAATCCGTATTTGGC (site TCGCTAGCTGC) | 0
TCGCTGTCATGGACCGGTTTTCCCGGTAATCCGTATTTGGA (site TCGCTGTCTTC) | 1.34
TCGGAGACATGGACCGGTTTTCCCGGTAATCCGTATTTGAT (site TCGGAGACTAT) | 1.93
TCGGATACATGGACCGGTTTTCCCGGTAATCCGTATTTGCC (site TCGGATACTGG) | 0.615
TCGGATCCATGGACCGGTTTTCCCGGTAATCCGTATTTGTC (site TCGGATCCTGA) | 0.795
TCGGATGCATGGACCGGTTTTCCCGGTAATCCGTATTTGAG (site TCGGATGCTCT) | 1.56
TCGGTATCATGGACCGGTTTTCCCGGTAATCCGTATTTGCA (site ACAGTATCTTG) | 1.54
TCGGTATCATGGACCGGTTTTCCCGGTAATCCGTATTTGCA (site TCGGTATCTTG) | 2.31
TCGTAGCCATGGACCGGTTTTCCCGGTAATCCGTATTTGTG (site TCGTAGCCTCA) | 0.0471
TCGTATGCATGGACCGGTTTTCCCGGTAATCCGTATTTGAC (site TCGTATGCTGT) | 0.101

Sequence | recombinant UMI read abundance (log10)
TCGTCACCATGGACCGGTTTTCCCGGTAATCCGTATTTGTG (site TCGTCACCTCA) | 0.0129
TCGTGACCATGGACCGGTTTTCCCGGTAATCCGTATTTGCA (site TCGTGACCTTG) | 0
TCGTTCCCATGGACCGGTTTTCCCGGTAATCCGTATTTGAC (site TCGTTCCCTGT) | 0
TCTAAAGCATGGACCGGTTTTCCCGGTAATCCGTATTTGAT (site ACTAAAGCTAT) | 0
TCTAAAGCATGGACCGGTTTTCCCGGTAATCCGTATTTGAT (site CCTAAAGCTAT) | 0
TCTAAAGCATGGACCGGTTTTCCCGGTAATCCGTATTTGAT (site GCTAAAGCTAT) | 0
TCTAAAGCATGGACCGGTTTTCCCGGTAATCCGTATTTGAT (site TCTAAAGCTAT) | 0.373
TCTAATTCATGGACCGGTTTTCCCGGTAATCCGTATTTGAA (site TCTAATTCTTT) | 0
TCTAGACCATGGACCGGTTTTCCCGGTAATCCGTATTTGCC (site TCTAGACCTGG) | 0
TCTATGCCATGGACCGGTTTTCCCGGTAATCCGTATTTGTT (site TCTATGCCTAA) | 0.00238
TCTGATACATGGACCGGTTTTCCCGGTAATCCGTATTTGCT (site TCTGATACTAG) | 0
TCTGCAACATGGACCGGTTTTCCCGGTAATCCGTATTTGAA (site TCTGCAACTTT) | 0.00363
TCTGCACCATGGACCGGTTTTCCCGGTAATCCGTATTTGGA (site TCTGCACCTTC) | 0.0216
TCTGCAGCATGGACCGGTTTTCCCGGTAATCCGTATTTGAA (site TCTGCAGCTTT) | 0.00333
TCTGCTGCATGGACCGGTTTTCCCGGTAATCCGTATTTGGC (site TCTGCTGCTGC) | 0
TCTTACCCATGGACCGGTTTTCCCGGTAATCCGTATTTGGA (site TCTTACCCTTC) | 0.0207
TCTTACTCATGGACCGGTTTTCCCGGTAATCCGTATTTGCA (site TCATACTCTTG) | 0.465
TCTTACTCATGGACCGGTTTTCCCGGTAATCCGTATTTGCA (site TCCTACTCTTG) | 1.09
TCTTACTCATGGACCGGTTTTCCCGGTAATCCGTATTTGCA (site TCGTACTCTTG) | 0.946
TCTTACTCATGGACCGGTTTTCCCGGTAATCCGTATTTGCA (site TCTTACTCTTG) | 0.535
TCTTATACATGGACCGGTTTTCCCGGTAATCCGTATTTGCT (site TCTTATACTAG) | 0.00302
TCTTATCCATGGACCGGTTTTCCCGGTAATCCGTATTTGGA (site TCTTATCCTTC) | 0.0232
TCTTCCCCATGGACCGGTTTTCCCGGTAATCCGTATTTGTA (site TATTCCCCTTA) | 0.0172
TCTTCCCCATGGACCGGTTTTCCCGGTAATCCGTATTTGTA (site TCTTCCCCTTA) | 0
TCTTCCCCATGGACCGGTTTTCCCGGTAATCCGTATTTGTA (site TGTTCCCCTTA) | 0.00596
